Like-named read-outs stand apart in the source and are kept apart here.
Assays:
[1] = system: HIV-1 infected H9 lymphocytes; settings: cited from earlier work
HIV = settings: cited from earlier work
HIV-1 [2] = settings: cited from earlier work
HIV-1 (wild type, S1) = test: microbe, parasite or virus in culture; type: cell-based
Experimental: Biological testing of compounds is based on the determination of their cytotoxicity, including determination of CC50 and CC90 (Cytotoxity Concentration) and the assessment of the ability to inhibit viral replication in cell cultures and the determination of IC50 and IC90 (Inhibitory Concentration). Cytotoxicity of compounds is assessed in cultures of established lymphoid CEMT4 cell lines using the MTT method. […] The cultures are run in triplicate for every concentration of the tested compounds. HIV replication inhibition by the studied compounds is assessed in cultures of established lymphoid CEMT4 cell lines. Cells are incubated for 24 hours in a medium (RPMI 10% FBS) supplemented with known concentrations of the tested preparations. The cells are then infected with a laboratory isolate of HIV-1 (wild type, S1). The cultures are prepared in triplicate for every concentration of the tested compound. […] HIV inhibiting ability is determined after 7 days of growing the culture by determining the viral p24 protein in the medium above the cells. […] Inhibition of replication is measured by reducing the amount of p24 protein in cultures enriched in test compounds with respect to the amount of p24 in a culture carried out in a standard medium. The amount of p24 viral protein is determined using an anti-p24 immunoenzymatic test. […]

HIV-1 [3] = settings: inhibiting the HIV-1 replication; cited from earlier work
[4] = Cytotoxicity in lymphoid CEMT4 cell cultures, MTT method; type: cell-based; settings: human, CEMT4 cells, viability relative to control cultures
Experimental: Biological testing of compounds is based on the determination of their cytotoxicity, including determination of CC50 and CC90 (Cytotoxity Concentration) and the assessment of the ability to inhibit viral replication in cell cultures and the determination of IC50 and IC90 (Inhibitory Concentration). Cytotoxicity of compounds is assessed in cultures of established lymphoid CEMT4 cell lines using the MTT method. […] The cultures are run in triplicate for every concentration of the tested compounds. HIV replication inhibition by the studied compounds is assessed in cultures of established lymphoid CEMT4 cell lines. Cells are incubated for 24 hours in a medium (RPMI 10% FBS) supplemented with known concentrations of the tested preparations. The cells are then infected with a laboratory isolate of HIV-1 (wild type, S1). The cultures are prepared in triplicate for every concentration of the tested compound. Cultures containing identical number of infected cells grown in a medium not containing the tested substances are used as a positive control (100% viral replication). HIV inhibiting ability is determined after 7 days of growing the culture by determining the viral p24 protein in the medium above the cells. The amount of the protein corresponds to the number of newly synthesized viruses. Inhibition of replication is measured by reducing the amount of p24 protein in cultures enriched in test compounds with respect to the amount of p24 in a culture carried out in a standard medium. The amount of p24 viral protein is determined using an anti-p24 immunoenzymatic test. The results are presented in the form of CC50, IC50 and TI (Therapeutic Index) values. Table 1. Results of determination of anti-HIV activity of synthesized compounds and of the reference compound, AZT

For “3-O-(3,3'-dimethylsuccinyl)betulinic acid [Item 3]”, the EC50 [1] is given as 3.5 nM.

For `C=C(C)[C@@H]1CC[C@]2(COC(=O)CC(C)(C)CC(=O)O)CC[C@]3(C)[C@H](CC[C@@H]4[C@@]5(C)CC[C@H](OC(=O)CC(C)(C)CC(=O)O)C(C)(C)[C@@H]5CC[C@]43C)[C@@H]12` [3,28-di-O-(3',3'-dimethylglutaryl)betulin], the EC50 (HIV) is given as 0.66 nM.

In the case of `C=C(C)[C@@H]1CC[C@]2(COC(=O)C(C)(C)CC(=O)O)CC[C@]3(C)[C@H](CC[C@@H]4[C@@]5(C)CC[C@H](OC(=O)CC(C)(C)C(=O)O)C(C)(C)[C@@H]5CC[C@]43C)[C@@H]12` [3-O-(3',3'-dimethylsuccinyl)-28-O-(2",2"-dimethylsuccinyl)betulin], the EC50 (HIV) is given as 0.87 nM.

For `C=C(C)[C@@H]1CC[C@]2(CO)CC[C@]3(C)[C@H](CC[C@@H]4[C@@]5(C)CC[C@H](O)C(C)(C)[C@@H]5CC[C@]43C)[C@@H]12` [Item 1, lup-20(29)-ene-3β,28-diol], the “activity against HIV-1” value (HIV-1 [2]) is listed as “weak activity”.

In the case of `C=C(C)[C@@H]1CC[C@]2(CO)CC[C@]3(C)[C@H](CC[C@@H]4[C@@]5(C)CC[C@H](O)C(C)(C)[C@@H]5CC[C@]43C)[C@@H]12` [Item 1], the IC50 (HIV-1 (wild type, S1)) is reported as “NO”.

In the case of `C=C(C)[C@@H]1CC[C@]2(C(=O)O)CC[C@]3(C)[C@H](CC[C@@H]4[C@@]5(C)CC[C@H](O)C(C)(C)[C@@H]5CC[C@]43C)[C@@H]12` [Item 2, (3β)-3-hydroxy-lup-20(29)-en-28-oic acid], the “activity against HIV-1” value (HIV-1 [2]) is listed as “weak activity” and the EC50 (HIV-1 [3]) is listed as 1600 nM.

In the case of `C=C(C)[C@@H]1CC[C@]2(C(=O)O)CC[C@]3(C)[C@H](CC[C@@H]4[C@@]5(C)CC[C@H](O)C(C)(C)[C@@H]5CC[C@]43C)[C@@H]12` [Item 2], the CC50 [4] is reported as 5000 nM.

With `C=C(C)[C@@H]1CC[C@]2(C(=O)O)CC[C@]3(C)[C@H](CC[C@@H]4[C@@]5(C)CC[C@H](OC(=O)CC(C)(C)C(=O)O)C(C)(C)[C@@H]5CC[C@]43C)[C@@H]12` [Item 3] the IC50 (HIV-1 (wild type, S1); Human immunodeficiency virus 1, CEM-T4) was 30 nM.

With `C=C(CP(=O)(OCC)OCC)[C@@H]1CC[C@]2(C(=O)O)CC[C@]3(C)[C@H](CC[C@@H]4[C@@]5(C)CC[C@H](OC(=O)CC(C)(C)C(=O)O)C(C)(C)[C@@H]5CC[C@]43C)[C@@H]12` [Item 5] the CC50 [4] was > 69000 nM.

For `C=C(CP(=O)(OCC)OCC)[C@@H]1CC[C@]2(C(=O)O)CC[C@]3(C)[C@H](CC[C@@H]4[C@@]5(C)CC[C@H](OC(=O)CCC(C)(C)C(=O)O)C(C)(C)[C@@H]5CC[C@]43C)[C@@H]12` [Item 6], the CC50 [4] was > 68000 nM.

With `C=C(CP(=O)(OCC)OCC)[C@@H]1CC[C@]2(C(=O)O)CC[C@]3(C)[C@H](CC[C@@H]4[C@@]5(C)CC[C@H](OC(=O)CC(C)(C)CC(=O)O)C(C)(C)[C@@H]5CC[C@]43C)[C@@H]12` [Item 7] the CC50 [4] was > 68000 nM.

For `CCOP(=O)(C=C(C)[C@@H]1CC[C@]2(C(=O)O)CC[C@]3(C)[C@H](CC[C@@H]4[C@@]5(C)CC[C@H](OC(=O)CC(C)(C)C(=O)O)C(C)(C)[C@@H]5CC[C@]43C)[C@@H]12)OCC` [Item 9], the CC50 [4] was > 69000 nM.

With `CCOP(=O)(C=C(C)[C@@H]1CC[C@]2(C(=O)O)CC[C@]3(C)[C@H](CC[C@@H]4[C@@]5(C)CC[C@H](OC(=O)CCC(C)(C)C(=O)O)C(C)(C)[C@@H]5CC[C@]43C)[C@@H]12)OCC` [Item 10] the CC50 [4] was > 68000 nM.

For `CCOP(=O)(C=C(C)[C@@H]1CC[C@]2(C(=O)O)CC[C@]3(C)[C@H](CC[C@@H]4[C@@]5(C)CC[C@H](OC(=O)CC(C)(C)CC(=O)O)C(C)(C)[C@@H]5CC[C@]43C)[C@@H]12)OCC` [Item 11], the CC50 [4] was > 68000 nM.

For `Cc1cn([C@H]2C[C@H](N=[N+]=[N-])[C@@H](CO)O2)c(=O)[nH]c1=O` [Item 12], the CC50 [4] was > 280000 nM.

In the case of `C=C(C)[C@@H]1CC[C@]2(C(=O)O)CC[C@]3(C)[C@H](CC[C@@H]4[C@@]5(C)CCC(=O)C(C)(C)[C@@H]5CC[C@]43C)[C@@H]12` [betulonic acid], the “activity against HIV-1” value (HIV-1 [2]) is given as “weak activity”.

In the case of `CC(C)[C@@H]1CC[C@]2(C(=O)O)CC[C@]3(C)C(CCC4[C@@]5(C)CC[C@H](O)C(C)(C)C5CC[C@]43C)C12` (stereo partly drawn) [dihydrobetulinic acid], the EC50 (HIV-1 [3]) is given as 900 nM.

— EP3575310A1, “PHOSPHONATE DERIVATES OF BETULIN COMPOUNDS WITH ANTIVIRAL ACTIVITY, METHOD FOR THEIR PREPARATION AND THEIR APPLICATION” (Uniwersystet Slaski w Katowicach, priority 2018, dated 2019)
